This passage reports IC50 results from article PMC9356058, “Homocysteine-targeting compounds as a new treatment strategy for diabetic wounds via inhibition of the histone methyltransferase SET7/9” (Experimental & Molecular Medicine, 2022).

For this assay, the target named is T1, SET7/9 (Homo sapiens, UniProt Q8WTS6).
T1 sequence (Q8WTS6 1-366): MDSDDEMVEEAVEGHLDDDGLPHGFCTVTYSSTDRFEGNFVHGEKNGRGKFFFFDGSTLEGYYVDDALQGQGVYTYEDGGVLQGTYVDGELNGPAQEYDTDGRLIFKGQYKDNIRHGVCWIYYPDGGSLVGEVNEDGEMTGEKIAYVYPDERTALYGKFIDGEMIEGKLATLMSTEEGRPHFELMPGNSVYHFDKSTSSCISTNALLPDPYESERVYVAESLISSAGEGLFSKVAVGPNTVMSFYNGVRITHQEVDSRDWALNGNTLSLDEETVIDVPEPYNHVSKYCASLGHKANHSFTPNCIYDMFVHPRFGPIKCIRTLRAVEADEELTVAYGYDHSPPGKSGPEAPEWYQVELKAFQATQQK
Briefly: fluorescence polarization, displacement of SAM-binding site probe. Also noted: gene SETD7; SET7/9 (human recombinant) assay enzyme. On the technique in general: In fluorescence polarisation assays a small probe gives low polarisation when free and higher when bound to something large.

Broadly, the IC50 is the concentration that gives 50% inhibition. As to `Nc1ncnc2c1ncn2[C@@H]1O[C@H](C[C@@H](N)CC[C@H](N)C(=O)O)[C@@H](O)[C@H]1O` [Sine, 5’-deoxy-5’-(1,4-diamino-4-carboxybutyl)adenosine], the IC50 amounted to 6.17 µM.
